Values of other authors, collected in paper PMC5862788 (Antiviral therapy, 2018).
Where two headings read alike, the source gives them in different places.

System: HCV

## COC(=O)N[C@H](C(=O)N1CCC[C@H]1c1nc(-c2ccc(-c3ccc(-c4c[nH]c([C@@H]5CCCN5C(=O)[C@@H](NC(=O)OC)C(C)C)n4)cc3)cc2)c[nH]1)C(C)C [daclatasvir]
200 mg tid
  predicted effectiveness ε: 0.996

## CC(C)(C)OC(=O)N[C@H]1CCCCC/C=C\[C@@H]2C[C@@]2(C(=O)NS(=O)(=O)C2CC2)NC(=O)[C@@H]2C[C@@H](OC(=O)N3Cc4cccc(F)c4C3)CN2C1=O [danoprevir]
100 mg bid
  predicted effectiveness ε: 0.976
monotherapy, 200 mg tid and 300 mg bid
  predicted effectiveness ε: 0.992

## CC(C)C(=O)OC[C@H]1O[C@@H](n2ccc(N)nc2=O)[C@](C)(F)[C@@H]1OC(=O)C(C)C [mericitabine]
1500 mg bid
  predicted effectiveness ε: 0.997
